Results taken from ChEMBL document CHEMBL1122453, “Structure-activity relationships in the antiinflammatory steroids: a pattern-recognition approach” (1983).
The source made the active and inactive calls. The calls are words filed in the database; no cut-off is given here.

What was measured:
[1] = organism: Homo sapiens
Description: Potency relative to fluocinolone 16,17-acetonide(Experimental vasoconstictor activity) in human

[2] = organism: Rattus norvegicus; assay: Anti-inflammatory effect in rat granuloma assay, activity relative to hydrocortisone and hydrocortisone 21-acetate; format: functional
[3] = organism: Homo sapiens; assay: Potency relative to fluocinolone 16,17-acetonide in the human vasoconstictor test; format: functional

## C[C@@H]1CC2C3C[C@H](Cl)C4=CC(=O)C=CC4(C)C3C(O)CC2(C)C1C(=O)COC(=O)C(C)(C)C (stereo partly drawn)
[1]
  Potency: inactive

## CCCC(=O)O[C@]1(C(=O)CO)CC[C@H]2[C@@H]3CCC4=CC(=O)CC[C@]4(C)[C@H]3[C@@H](O)C[C@@]21C [HYDROCORTISONE BUTYRATE]
[2]
  Potency: 1
[3]
  Potency: 50

## C[C@H]1CC2C3CCC4=CC(=O)C=CC4(C)[C@@]3(F)[C@@H](O)CC2(C)[C@@]1(O)C(=O)CCl (stereo partly drawn)
[1]
  Potency: inactive

## CC(=O)OCC(=O)[C@@]1(O)CC[C@H]2[C@@H]3CCC4=CC(=O)CC[C@]4(C)[C@H]3[C@@H](O)C[C@@]21C [HYDROCORTISONE ACETATE]
[2]
  Potency: 1
[3]
  Potency: 1

## CC1(C)O[C@@H]2C[C@H]3[C@@H]4CCC5=CC(=O)C=C[C@]5(C)[C@@]4(F)[C@@H](O)C[C@]3(C)[C@]2(C(=O)CO)O1 [TRIAMCINOLONE ACETONIDE]
[2]
  Potency: 49
[3]
  Potency: 100

## CC(=O)OCC(=O)[C@@]1(O)CC[C@H]2[C@@H]3CCC4=CC(=O)CC[C@]4(C)[C@@]3(F)[C@@H](O)C[C@@]21C [FLUDROCORTISONE ACETATE]
[2]
  Potency: 7.3
[3]
  Potency: 1

## C[C@@H]1C[C@H]2[C@@H]3CCC4=CC(=O)C=C[C@]4(C)[C@@]3(F)[C@@H](O)C[C@]2(C)[C@@]1(O)C(=O)CO [DEXAMETHASONE]
[2]
  Potency: 200
[3]
  Potency: 1

## C[C@@H]1CC2C3CCC4=CC(=O)C=CC4(C)[C@@]3(F)[C@@H](O)CC2(C)[C@@]1(C)C(=O)CO (stereo partly drawn)
[1]
  Potency: inactive

## CC(=O)OCC(=O)[C@]1(O)C2(C)C[C@H](O)C3C(CCC4=CC(=O)C=CC43C)C2C[C@@]1(C)O (stereo partly drawn)
[1]
  Potency: inactive

## CC12CCC(=O)C=C1CCC1C2[C@@H](O)CC2(C)C1CC[C@]2(O)C(=O)OCCl (stereo partly drawn)
[1]
  Potency: inactive

## C[C@H]1C[C@H]2[C@@H]3CCC4=CC(=O)C=C[C@]4(C)[C@@]3(F)[C@@H](O)C[C@]2(C)[C@@]1(O)C(=O)CO [BETAMETHASONE]
[2]
  Potency: 35.8
[3]
  Potency: 0.8

## C[C@]12CCC(=O)C=C1CC[C@@H]1[C@@H]2[C@@H](O)C[C@@]2(C)[C@H]1CC[C@]2(O)C(=O)CO [HYDROCORTISONE]
[2]
  Potency: 1
[3]
  Potency: <1

## C[C@]12C=CC(=O)C=C1CC[C@H]1[C@@H]3C[C@@H](O)[C@](O)(C(=O)CO)[C@@]3(C)C[C@H](O)[C@@]12F [TRIAMCINOLONE]
[2]
  Potency: 2.6
[3]
  Potency: 0.01

## CC(=O)OCC(=O)[C@@]1(O)CC[C@H]2[C@@H]3CCC4=CC(=O)C=C[C@]4(C)[C@H]3[C@@H](O)C[C@@]21C [PREDNISOLONE ACETATE]
[2]
  Potency: 3
[3]
  Potency: 1

## C[C@]12C=CC(=O)C=C1CC[C@@H]1[C@@H]2[C@@H](O)C[C@@]2(C)[C@H]1CC[C@]2(O)C(=O)CO [PREDNISOLONE]
[2]
  Potency: 3
[3]
  Potency: 0.1

## C[C@]12C[C@H](O)[C@H]3[C@@H](CCC4=CC(=O)CC[C@@]43C)[C@@H]1CC[C@@H]2C(=O)CO [CORTICOSTERONE]
[2]
  Potency: 0.3
[3]
  Potency: 0.3

## CC(=O)OCC(=O)[C@@]12OC(C)(C)O[C@@H]1CC1C3C[C@H](F)C4=CC(=O)CCC4(C)C3C(O)CC12C (stereo partly drawn)
[2]
  Potency: 4

## C[C@H]1C[C@@H]2[C@H]([C@@H](O)C[C@@]3(C)[C@H]2CC[C@]3(O)C(=O)CO)[C@@]2(C)C=CC(=O)C=C12 (stereo in doubt) [METHYLPREDNISOLONE]
[2]
  Potency: 5
[3]
  Potency: 0.1

## CC(=O)OCC(=O)[C@@]1(O)CCC2C3CCC4=CC(=O)[C@H](C)CC4(C)C3C(O)CC21C (stereo partly drawn)
[2]
  Potency: 4.5

## CC(=O)OCC(=O)[C@@]1(O)CCC2C3CCC4=CC(=O)[C@H](C)CC4(C)[C@@]3(F)C(O)CC21C (stereo partly drawn)
[2]
  Potency: 9

## CC(=O)OCC(=O)[C@@]12OC(C)(C)O[C@@H]1CC1C3C[C@H](F)C4=CC(=O)C=CC4(C)C3C(O)CC12C (stereo partly drawn)
[2]
  Potency: 20
